# Values of other authors in PubChem BioAssay AID1259409 (Chemical Carcinogenesis Research Information System (CCRIS), 2018).
# Test system: rodent chemically induced tumor inhibition, incidence and multiplicity
# Assay: CCRIS tumor inhibitor studies
# Conditions: Promoter: NONE USED
smiles,measurement,setting,value
CCO,"tumour outcome (control, treated, inhibition, significance)","Carcinogen: AZOXYMETHANE, 25843-45-2, Dose [Inhibitor]: 33% OF TOTAL CALORIES OF DIET GIVEN CONTINUOUSLY FOR 3 WK PRIOR TO CARCINOGEN DOSE AND 10 WK DURING INDUCTION (STUDY DUR, Route [Inhibitor]: ORAL, Species: RAT, Strain/Sex: F344/MALE, Target Tissue: Type of Lesion: COLON: TUMOR, Dose [Carcinogen]: 14 MG/KG 1/WK FOR 10 WK","91%, 5%, 94%, not calculated"
same,"tumour outcome (control, treated, inhibition, significance)","Carcinogen: AZOXYMETHANE, 25843-45-2, Dose [Inhibitor]: 33% OF TOTAL CALORIES OF DIET GIVEN CONTINUOUSLY FOR 3 WK PRIOR TO CARCINOGEN DOSE AND 10 WK DURING INDUCTION (STUDY DUR, Route [Inhibitor]: ORAL, Species: RAT, Strain/Sex: F344/MALE, Target Tissue: Type of Lesion: EAR CANAL: TUMOR, Dose [Carcinogen]: 14 MG/KG 1/WK FOR 10 WK","9%, 0%, 100%, not calculated"
same,"tumour outcome (control, treated, inhibition, significance)","Carcinogen: AZOXYMETHANE, 25843-45-2, Dose [Inhibitor]: 33% OF TOTAL CALORIES OF DIET GIVEN CONTINUOUSLY FOR 3 WK PRIOR TO CARCINOGEN DOSE AND 10 WK DURING INDUCTION (STUDY DUR, Route [Inhibitor]: ORAL, Species: RAT, Strain/Sex: F344/MALE, Target Tissue: Type of Lesion: SMALL INTESTINE: TUMOR, Dose [Carcinogen]: 14 MG/KG 1/WK FOR 10 WK","74%, 0%, 100%, p<0.0001"
same,"tumour outcome (control, treated, inhibition, significance)","Carcinogen: ETHYL CARBAMATE, 51-79-6, Dose [Inhibitor]: 0, 12% ADMINISTERED WITH CARCINOGEN IN DRINKING WATER FOR 41 WK (STUDY DURATION: 41 WK), Route [Inhibitor]: ORAL, Species: MOUSE, Strain/Sex: C3H/MALE, Target Tissue: Type of Lesion: LIVER: HEMANGIOENDOTHELIOMA, Dose [Carcinogen]: 20 MG/KG IN DRINKING WATER FOR 41 WK","14%, 14%, 0%, not calculated"
same,"tumour outcome (control, treated, inhibition, significance)","Carcinogen: ETHYL CARBAMATE, 51-79-6, Dose [Inhibitor]: 0, 12% ADMINISTERED WITH CARCINOGEN IN DRINKING WATER FOR 41 WK (STUDY DURATION: 41 WK), Route [Inhibitor]: ORAL, Species: MOUSE, Strain/Sex: C3H/MALE, Target Tissue: Type of Lesion: LIVER: HEMANGIOSARCOMA, Dose [Carcinogen]: 10 MG/KG IN DRINKING WATER FOR 41 WK","5%, 0%, 100%, not significant"
same,"tumour outcome (control, treated, inhibition, significance)","Carcinogen: ETHYL CARBAMATE, 51-79-6, Dose [Inhibitor]: 0, 12% ADMINISTERED WITH CARCINOGEN IN DRINKING WATER FOR 41 WK (STUDY DURATION: 41 WK), Route [Inhibitor]: ORAL, Species: MOUSE, Strain/Sex: C3H/MALE, Target Tissue: Type of Lesion: LIVER: HEMANGIOSARCOMA, Dose [Carcinogen]: 20 MG/KG IN DRINKING WATER FOR 41 WK","24%, 0%, 100%, not significant"
same,"tumour outcome (control, treated, inhibition, significance)","Carcinogen: ETHYL CARBAMATE, 51-79-6, Dose [Inhibitor]: 0, 12% ADMINISTERED WITH CARCINOGEN IN DRINKING WATER FOR 41 WK (STUDY DURATION: 41 WK), Route [Inhibitor]: ORAL, Species: MOUSE, Strain/Sex: C3H/MALE, Target Tissue: Type of Lesion: LIVER: HEPATOCELLULAR ADENOMA, Dose [Carcinogen]: 10 MG/KG IN DRINKING WATER FOR 41 WK","57%, 24%, 58%, not significant"
same,"tumour outcome (control, treated, inhibition, significance)","Carcinogen: ETHYL CARBAMATE, 51-79-6, Dose [Inhibitor]: 0, 12% ADMINISTERED WITH CARCINOGEN IN DRINKING WATER FOR 41 WK (STUDY DURATION: 41 WK), Route [Inhibitor]: ORAL, Species: MOUSE, Strain/Sex: C3H/MALE, Target Tissue: Type of Lesion: LIVER: HEPATOCELLULAR ADENOMA, Dose [Carcinogen]: 20 MG/KG IN DRINKING WATER FOR 41 WK","48%, 57%, -19%, not significant"
same,"tumour outcome (control, treated, inhibition, significance)","Carcinogen: ETHYL CARBAMATE, 51-79-6, Dose [Inhibitor]: 0, 12% ADMINISTERED WITH CARCINOGEN IN DRINKING WATER FOR 41 WK (STUDY DURATION: 41 WK), Route [Inhibitor]: ORAL, Species: MOUSE, Strain/Sex: C3H/MALE, Target Tissue: Type of Lesion: LIVER: HEPATOCELLULAR CARCINOMA, Dose [Carcinogen]: 10 MG/KG IN DRINKING WATER FOR 41 WK","5%, 0%, 100%, not significant"
same,"tumour outcome (control, treated, inhibition, significance)","Carcinogen: ETHYL CARBAMATE, 51-79-6, Dose [Inhibitor]: 0, 12% ADMINISTERED WITH CARCINOGEN IN DRINKING WATER FOR 41 WK (STUDY DURATION: 41 WK), Route [Inhibitor]: ORAL, Species: MOUSE, Strain/Sex: C3H/MALE, Target Tissue: Type of Lesion: LIVER: HEPATOCELLULAR CARCINOMA, Dose [Carcinogen]: 20 MG/KG IN DRINKING WATER FOR 41 WK","14%, 5%, 64%, not significant"
same,"tumour outcome (control, treated, inhibition, significance)","Carcinogen: ETHYL CARBAMATE, 51-79-6, Dose [Inhibitor]: 0, 12% ADMINISTERED WITH CARCINOGEN IN DRINKING WATER FOR 41 WK (STUDY DURATION: 41 WK), Route [Inhibitor]: ORAL, Species: MOUSE, Strain/Sex: C3H/MALE, Target Tissue: Type of Lesion: LUNG: ALVEOLAR ADENOMA, Dose [Carcinogen]: 10 MG/KG IN DRINKING WATER FOR 41 WK","19%, 0%, 100%, not significant"
same,"tumour outcome (control, treated, inhibition, significance)","Carcinogen: ETHYL CARBAMATE, 51-79-6, Dose [Inhibitor]: 0, 12% ADMINISTERED WITH CARCINOGEN IN DRINKING WATER FOR 41 WK (STUDY DURATION: 41 WK), Route [Inhibitor]: ORAL, Species: MOUSE, Strain/Sex: C3H/MALE, Target Tissue: Type of Lesion: LUNG: ALVEOLAR ADENOMA, Dose [Carcinogen]: 20 MG/KG IN DRINKING WATER FOR 41 WK","48%, 38%, 21%, not significant"
same,"tumour outcome (control, treated, inhibition, significance)","Carcinogen: ETHYL CARBAMATE, 51-79-6, Dose [Inhibitor]: 0, 12% ADMINISTERED WITH CARCINOGEN IN DRINKING WATER FOR 41 WK (STUDY DURATION: 41 WK), Route [Inhibitor]: ORAL, Species: MOUSE, Strain/Sex: C3H/MALE, Target Tissue: Type of Lesion: LUNG: CLARA-CELL ADENOMA, Dose [Carcinogen]: 10 MG/KG IN DRINKING WATER FOR 41 WK","52%, 24%, 54%, not significant"
same,"tumour outcome (control, treated, inhibition, significance)","Carcinogen: ETHYL CARBAMATE, 51-79-6, Dose [Inhibitor]: 0, 12% ADMINISTERED WITH CARCINOGEN IN DRINKING WATER FOR 41 WK (STUDY DURATION: 41 WK), Route [Inhibitor]: ORAL, Species: MOUSE, Strain/Sex: C3H/MALE, Target Tissue: Type of Lesion: LUNG: CLARA-CELL ADENOMA, Dose [Carcinogen]: 20 MG/KG IN DRINKING WATER FOR 41 WK","57%, 38%, 33%, not significant"
same,"tumour outcome (control, treated, inhibition, significance)","Carcinogen: ETHYL CARBAMATE, 51-79-6, Dose [Inhibitor]: 0, 20% SIMULTANEOUSLY WITH CARCINOGEN 1/D FOR 8 WK (STUDY DURATION: 16 WK), Route [Inhibitor]: GAVAGE, Species: MOUSE, Strain/Sex: NMRI/FEMALE, Target Tissue: Type of Lesion: LUNG: ADENOMA, Dose [Carcinogen]: 18 MG/KG IN 20% ETHANOL 1/D FOR 8 WK (CONTROL GROUP ADMINISTERED CARCINOGEN IN WATER)","65%, 76%, -17%, not significant"
same,"tumour outcome (control, treated, inhibition, significance)","Carcinogen: ETHYL CARBAMATE, 51-79-6, Dose [Inhibitor]: 0, 20% SIMULTANEOUSLY WITH CARCINOGEN 1/D FOR 8 WK (STUDY DURATION: 16 WK), Route [Inhibitor]: GAVAGE, Species: MOUSE, Strain/Sex: NMRI/FEMALE, Target Tissue: Type of Lesion: LUNG: ADENOMA, Dose [Carcinogen]: 36 MG/KG IN 20% ETHANOL 1/D FOR 8 WK (CONTROL GROUP ADMINISTERED CARCINOGEN IN WATER)","96%, 83%, 14%, not significant"
same,"tumour outcome (control, treated, inhibition, significance)","Carcinogen: ETHYL CARBAMATE, 51-79-6, Dose [Inhibitor]: 0, 20% SIMULTANEOUSLY WITH CARCINOGEN 1/D FOR 8 WK (STUDY DURATION: 16 WK), Route [Inhibitor]: GAVAGE, Species: MOUSE, Strain/Sex: NMRI/FEMALE, Target Tissue: Type of Lesion: LUNG: ADENOMA, Dose [Carcinogen]: 90 MG/KG IN 20% ETHANOL 1/D FOR 8 WK (CONTROL GROUP ADMINISTERED CARCINOGEN IN WATER)","100%, 100%, 0%, not significant"
